# Results as given in ChEMBL document CHEMBL1201862, “PubChem BioAssay data set” (2004).
#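 96-well plates; 48 h exposure; 5 concentrations. Endpoints by linear interpolation between flanking doses. Not reached: highest tested concentration assigned. The concentration for 50% growth inhibition is given as GI50.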 The source made the active and inactive calls. Rule as the data show it: active = GI50 up to about 1.1 µM and inactive = higher.
# How the values were obtained:
# Experiment in all cases: NCI-60 cell line screen, 48 h
# 786-0 = test system: 786-0
# ACHN = test system: ACHN
# BT-549 = test system: BT-549
# CCRF-CEM = test system: CCRF-CEM
# DU-145 = test system: DU-145
# KM12 = test system: KM12
# LOX IMVI = test system: LOX IMVI
# MCF7 = test system: MCF7
# OVCAR-8 = test system: OVCAR-8
# PC-3 = test system: PC-3
# SF-268 = test system: SF-268
# SK-MEL-28 = test system: SK-MEL-28
# SN12C = test system: SN12C
# SW-620 = test system: SW-620
# UACC-257 = test system: UACC-257
# M14 = test system: M14
# OVCAR-4 = test system: OVCAR-4
# SK-OV-3 = test system: SK-OV-3
SMILES,GI50 (786-0),GI50 (ACHN),GI50 (BT-549),GI50 (CCRF-CEM),GI50 (DU-145),GI50 (KM12),GI50 (LOX IMVI),GI50 (MCF7),GI50 (OVCAR-8),GI50 (PC-3),GI50 (SF-268),GI50 (SK-MEL-28),GI50 (SN12C),GI50 (SW-620),GI50 (UACC-257),GI50 (M14),GI50 (OVCAR-4),GI50 (SK-OV-3)
Cc1ccc(/C=C2\Cc3cc(C)c(C)cc3C2=O)c(C(=O)O)c1,40.2 µM (inactive),46.3 µM (inactive),16.3 µM (inactive),27 µM (inactive),26.7 µM (inactive),35.8 µM (inactive),31 µM (inactive),24.7 µM (inactive),43.5 µM (inactive),22.3 µM (inactive),24.3 µM (inactive),52.5 µM (inactive),30.5 µM (inactive),34.6 µM (inactive),24.5 µM (inactive),,,
O=C1NC2c3c(I)sc(I)c3/C(=N\O)C2O1 (stereo not given),24.4 µM (inactive),17 µM (inactive),,24.3 µM (inactive),53.7 µM (inactive),30.1 µM (inactive),29.4 µM (inactive),33.8 µM (inactive),18.4 µM (inactive),39.2 µM (inactive),24.3 µM (inactive),41.8 µM (inactive),30.8 µM (inactive),19 µM (inactive),58.3 µM (inactive),36.8 µM (inactive),26.1 µM (inactive),34.5 µM (inactive)
CCN(CCCl)c1cccc(NC(=O)c2ccc(C(=O)Nc3cccc(CN(C)C)c3)cc2)c1,0.0239 µM (active),0.0354 µM (active),,0.027 µM (active),0.0432 µM (active),0.129 µM (active),0.0277 µM (active),0.0215 µM (active),0.183 µM (active),0.044 µM (active),0.0379 µM (active),0.165 µM (active),0.335 µM (active),0.034 µM (active),0.113 µM (active),0.204 µM (active),0.0344 µM (active),0.298 µM (active)
COC(=O)C1Cc2c([nH]c3ccccc23)-c2[nH]c3ccccc3c2CC(NC(C)=O)C(=O)NCC(=O)NCC(=O)N1 (stereo not given),> 100 µM (inactive),> 100 µM (inactive),> 100 µM (inactive),> 100 µM (inactive),> 100 µM (inactive),> 100 µM (inactive),> 100 µM (inactive),,> 100 µM (inactive),> 100 µM (inactive),> 100 µM (inactive),> 100 µM (inactive),> 100 µM (inactive),> 100 µM (inactive),> 100 µM (inactive),> 100 µM (inactive),,> 100 µM (inactive)
